US4200744A, “Substituted 7α-methoxy-7β[(2,3-dioxo-1-piperazinyl)carbonylaminophenylace tamido]cephalosporins” (Toyama Chemical Company, Limited, priority 1977, dated 1980)

Experiments:
[1] = target: T1, Cephalosporinase Pseudomonas aeruginosa TN 918 (Pseudomonas aeruginosa, UniProt P24735); assay: Resistance against β-lactamase, iodometric assay; assay type: biochemical; conditions: activity of control Cephalorigine assumed as 100
T1 construct: TN 918; endogenous in cells; host or cells: Pseudomonas aeruginosa TN 918
T1 sequence (P24735 27-397): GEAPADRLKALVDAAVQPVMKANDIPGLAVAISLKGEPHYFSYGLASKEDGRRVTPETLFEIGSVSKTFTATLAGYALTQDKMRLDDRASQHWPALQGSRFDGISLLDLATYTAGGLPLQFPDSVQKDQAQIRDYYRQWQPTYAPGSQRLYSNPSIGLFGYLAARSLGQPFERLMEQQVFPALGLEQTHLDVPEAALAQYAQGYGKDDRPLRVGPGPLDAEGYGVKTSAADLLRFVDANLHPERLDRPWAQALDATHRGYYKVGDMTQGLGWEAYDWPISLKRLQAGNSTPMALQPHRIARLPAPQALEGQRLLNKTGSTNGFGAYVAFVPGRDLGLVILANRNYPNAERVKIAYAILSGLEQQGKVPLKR
Method: (§1) The resistant activity against β-lactamase of the product obtained above was as shown in Table 3 in which comparisons are shown:
(§2) The resistance of each compound against β-lactamase was determined by the iodometric assay method.

[2] = target: T2, Cephalosporinase Serratia W-8 (Serratia marcescens, UniProt P18539); assay: Resistance against β-lactamase, iodometric assay; assay type: biochemical; conditions: activity of control Cephalorigine assumed as 100
T2 construct: W-8; endogenous in cells; host or cells: Serratia W-8
T2 sequence (P18539 22-376): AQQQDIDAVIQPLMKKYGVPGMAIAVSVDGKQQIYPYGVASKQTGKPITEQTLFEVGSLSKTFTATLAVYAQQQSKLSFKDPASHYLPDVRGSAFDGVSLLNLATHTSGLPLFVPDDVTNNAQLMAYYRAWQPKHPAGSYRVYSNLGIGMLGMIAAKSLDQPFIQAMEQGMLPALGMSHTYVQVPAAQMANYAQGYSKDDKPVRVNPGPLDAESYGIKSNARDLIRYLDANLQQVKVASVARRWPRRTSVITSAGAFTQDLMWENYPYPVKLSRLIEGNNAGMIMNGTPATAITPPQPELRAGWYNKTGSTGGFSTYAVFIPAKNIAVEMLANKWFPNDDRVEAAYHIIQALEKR
Method: as §1, §2

[3] = system: Penicillinase E. coli TK-3; assay: Resistance against β-lactamase, iodometric assay; assay type: biochemical; conditions: activity of control potassium Penicillin G assumed as 100
Method: as §1, §2

[4] = system: Citrobacter freundii GN 346 (Cephalosporinase-producing bacterium); assay: MIC by plate method; assay type: cell-based; set-up: unit not given here; conditions: Heart Infusion agar pH 7.4, inoculum 10^4 cells per plate (10^6 cells/ml)
Method: (§3) The minimum inhibitory concentration (MIC) was determined by the plate method disclosed in "Chemotherapy" (Japan), Vol. 16, (1968), pages 98-99. The culture medium used was a Heart Infusion agar (pH 7.4). The number of the cells per plate used in the inoculum was 10^4 (10^6 cells/ml).

[5] = system: Enterobacter cloacae IID 977; assay: MIC by plate method; assay type: cell-based; set-up: unit not given here; conditions: Heart Infusion agar pH 7.4, inoculum 10^4 cells per plate (10^6 cells/ml)
Method: as §3

Escherichia coli NIHJ = assay: MIC by plate method; assay type: cell-based; set-up: unit not given here; conditions: Heart Infusion agar pH 7.4, inoculum 10^4 cells per plate (10^6 cells/ml)
Method: as §3

[6] = system: Klebsiella pneumoniae Y-50; assay: MIC by plate method; assay type: cell-based; set-up: unit not given here; conditions: Heart Infusion agar pH 7.4, inoculum 10^4 cells per plate (10^6 cells/ml)
Method: as §3

[7] = system: Proteus vulgaris GN 76 (Cephalosporinase-producing bacterium); assay: MIC by plate method; assay type: cell-based; set-up: unit not given here; conditions: Heart Infusion agar pH 7.4, inoculum 10^4 cells per plate (10^6 cells/ml)
Method: as §3

[8] = system: Pseudomonas aeruginosa IFO-3445; assay: MIC by plate method; assay type: cell-based; set-up: unit not given here; conditions: Heart Infusion agar pH 7.4, inoculum 10^4 cells per plate (10^6 cells/ml)
Method: as §3

Serratia marcescens W-8 = assay: MIC by plate method; assay type: cell-based; set-up: unit not given here; conditions: Heart Infusion agar pH 7.4, inoculum 10^4 cells per plate (10^6 cells/ml)
Method: as §3

[9] = system: Staphylococcus aureus F-19 (Penicillinase-producing bacterium); assay: MIC by plate method; assay type: cell-based; set-up: unit not given here; conditions: Heart Infusion agar pH 7.4, inoculum 10^4 cells per plate (10^6 cells/ml)
Method: as §3

[10] = system: Acinetobacter calcoaceticus A-6; assay: MIC by plate method; assay type: cell-based; conditions: Heart Infusion agar pH 7.4, inoculum 10^4 cells per plate (10^6 cells/ml)
Method: as §3

[11] = system: Citrobacter spp Toyama Citizen No. 31; assay: MIC by plate method; assay type: cell-based; conditions: Heart Infusion agar pH 7.4, inoculum 10^4 cells per plate (10^6 cells/ml)
Method: as §3

Row | minimum inhibitory concentration (MIC) [4] | minimum inhibitory concentration (MIC) [5] | minimum inhibitory concentration (MIC) (Escherichia coli NIHJ) | minimum inhibitory concentration (MIC) [6] | minimum inhibitory concentration (MIC) [7] | minimum inhibitory concentration (MIC) [8] | minimum inhibitory concentration (MIC) (Serratia marcescens W-8) | minimum inhibitory concentration (MIC) [9] | minimum inhibitory concentration (MIC) [10] | minimum inhibitory concentration (MIC) [11] | Structure (SMILES) | relative activity value, Cephalosporinase Pseudomonas aeruginosa TN 918 [1] | relative activity value, Cephalosporinase Serratia W-8 [2] | relative activity value, Penicillinase E. coli TK-3 [3]
1 | – | – | – | – | – | – | – | – | – | – | O=C(Cc1cccs1)N[C@@H]1C(=O)N2C(C(=O)[O-])=C(C[n+]3ccccc3)CS[C@H]12 [Cephalorigine] | 100 | 100 | 115
2 | 100 | 25 | ≤ 0.1 | 0.78 | 0.78 | 12.5 | 50 | 6.25 | 12.5 | 1.56 | CCN1CCN(C(=O)N[C@@H](C(=O)N[C@]2(OC)C(=O)N3C(C(=O)O)=C(CSc4nnnn4C)CS[C@@H]32)c2ccccc2)C(=O)C1=O [Compound No. 1, 7β-[D(-)-α-(4-ethyl-2,3-dioxo-1-piperazinylcarbonylamino)phenylacetamido]-7α-methoxy-3-[5-(1-methyl-1,2,3,4-tetrazolyl)thiomethyl]-Δ^3-cephem-4-carboxylic acid] | – | – | –
3 | 100 | 100 | ≤ 0.1 | 0.2 | 0.39 | 6.25 | 100 | 6.25 | 6.25 | 1.56 | CCN1CCN(C(=O)N[C@@H](C(=O)N[C@]2(OC)C(=O)N3C(C(=O)O)=C(CSc4nnnn4C)CS[C@@H]32)c2ccc(O)cc2)C(=O)C1=O [Compound No. 2, 7β-[D(-)-α-(4-ethyl-2,3-dioxo-1-piperazinylcarbonylamino)-p-hydroxyphenylacetamido]-7α-methoxy-3-[5-(1-methyl-1,2,3,4-tetrazolyl)thiomethyl]-Δ^3-cephem-4-carboxylic acid] | – | – | –
4 | > 200 | 100 | ≤ 0.1 | 1.56 | 3.13 | 100 | 200 | 12.5 | 25 | 6.25 | CCN1CCN(C(=O)N[C@@H](C(=O)N[C@]2(OC)C(=O)N3C(C(=O)O)=C(CSc4nnc(C)s4)CS[C@@H]32)c2ccccc2)C(=O)C1=O [Compound No. 3, 7β-[D(-)-α-(4-ethyl-2,3-dioxo-1-piperazinylcarbonylamino)phenylacetamido]-7α-methoxy-3-[2-(5-methyl-1,3,4-thiadiazolyl)thiomethyl]-Δ^3-cephem-4-carboxylic acid] | – | – | –
5 | – | – | – | – | – | – | – | – | – | – | CC1(C)S[C@@H]2[C@H](NC(=O)Cc3ccccc3)C(=O)N2[C@H]1C(=O)O [Potassium Penicillin G] | 16 | 21 | 100

Row | Structure (SMILES) | minimum inhibitory concentration (MIC) [4] | minimum inhibitory concentration (MIC) [5] | minimum inhibitory concentration (MIC) (Escherichia coli NIHJ) | minimum inhibitory concentration (MIC) [6] | minimum inhibitory concentration (MIC) [7] | minimum inhibitory concentration (MIC) [8] | minimum inhibitory concentration (MIC) (Serratia marcescens W-8) | minimum inhibitory concentration (MIC) [9] | minimum inhibitory concentration (MIC) [10] | minimum inhibitory concentration (MIC) [11] | relative activity value, Cephalosporinase Pseudomonas aeruginosa TN 918 [1] | relative activity value, Cephalosporinase Serratia W-8 [2] | relative activity value, Penicillinase E. coli TK-3 [3]
6 | CCN1CCN(C(=O)N[C@@H](C(=O)N[C@]2(OC)C(=O)N3C(C(=O)O)=C(COC(C)=O)CS[C@@H]32)c2ccccc2)C(=O)C1=O [Compound No. 4, 7β-[D(-)-α-(4-ethyl-2,3-dioxo-1-piperazinylcarbonylamino)phenylacetamido]-7α-methoxy-3-acetoxymethyl-Δ^3-cephem-4-carboxylic acid] | – | 100 | ≤ 0.1 | 1.56 | 1.56 | 50 | 200 | 12.5 | – | – | < 0.4 | < 0.06 | < 0.04
7 | CCN1CCN(C(=O)N[C@@H](C(=O)N[C@]2(OC)C(=O)N3C(C(=O)O)=C(COC(C)=O)CS[C@@H]32)c2ccc(O)cc2)C(=O)C1=O [Compound No. 5, 7β-[D(-)-α-(4-ethyl-2,3-dioxo-1-piperazinylcarbonylamino)-p-hydroxyphenylacetamido]-7α-methoxy-3-acetoxymethyl-Δ^3-cephem-4-carboxylic acid] | 25 | 100 | ≤ 0.1 | 0.78 | 3.13 | 12.5 | 200 | 25 | – | – | – | – | –
